Measured values reported in paper PMC9503112, “Synthesis, Molecular Docking, In Vitro and In Vivo Studies of Novel Dimorpholinoquinazoline-Based Potential Inhibitors of PI3K/Akt/mTOR Pathway” (International Journal of Molecular Sciences, 2022).
“And” between values parts separate entries of the source, which are not always exact repeats. Equal values may be shown once.

Assays:
[1] = tested on: SkBr-3 cells; assay: Cell cycle analysis (PI-stained DNA, flow cytometry); type: cell-based, human
Method: The cell cycle was analyzed using PI-stained DNA. Cells from the compounds 7 treated cultures were collected at 24, 48, and 72 h, trypsinized, washed in ice-cold PBS, fixed by the addition of 70% ethanol and left for 2 h at −20 °C. Thereafter, the cells were washed twice in PBS, stained with 50 μg/mL of propidium iodide (Sigma, Merck KGaA, Darmstadt, Germany) in PBS, treated with 10 µg/mL of RNAse and analyzed by flow cytometry using FACScan device (BD, USA). A total of 2000 events were collected. The results were analyzed using FlowJo 10 software (BD, Franklin Lakes, NJ, USA).

[2] = Solubility; type: physicochemical
[3] = tested on: PI3K/Akt/mTOR signaling pathway in MCF7 cells; assay: Immunoblotting of PI3K/Akt/mTOR phosphorylation; type: cell-based, human
Method: MCF7 cells were seeded onto 100 mm dishes (Corning) and cultivated for 24 h. Compound 7c was added at different concentrations while the reference compound wortmannin (Selleckchem, Houston, TX, USA) was used at 500 nM. The cells were harvested after 72 h of growth with the compounds. To prepare cell extracts, MCF7 cells were twice washed in phosphate buffer and incubated for 10 min on ice in the modified lysis buffer containing 50 mM Tris-HCl, pH 7.5, 0.5% Igepal CA-630, 150 mM NaCl, 1 mM EDTA, 1 mM DTT, 1 mM PMSF, 0.1 mM sodium orthovanadate and aprotinin, leupeptin, pepstatin (1 µg/mL each). The protein content was determined by the Bradford method. Cell lysates were separated in 10% SDS-PAGE under reducing conditions, transferred to a nitrocellulose membrane (GE HealthCare, Chicago, IL, USA), and processed according to a standard protocol. To prevent nonspecific absorption, the membranes were treated with 5% nonfat milk solution in TBS buffer (20 mM Tris, 500 mM NaCl, pH 7.5) with 0.1% Tween-20 and then incubated with primary antibodies (Cell Signaling Technology, Danvers, MA, USA) overnight at 4 °C. […] Signals were detected using the ECL reagent using the ImageQuant LAS4000 system (GE HealthCare, Chicago, IL, USA).
The signals of phospho-proteins to total ones were calculated using the ImageJ program from inverted images of the bands.

[4] = tested on: MCF7; assay: Antiproliferative activity, MTT assay; type: cell-based; conditions: Homo sapiens, 72 h, standard deviations within 50%
Method: (§1) Human breast cancer MCF7, MDA-MB-231, SkBr-3 (purchased from the ATCC collection), human keratinocytes HaCaT, murine fibroblasts L929 and macrophages J774 cells (Collection of Shemyakin-Ovchinnikov Institute of Bioorganic Chemistry RAS) were cultured in standard DMEM or RPMI-1640 medium (ThermoScientific, Waltham, MA, USA) supplemented with 10% fetal bovine serum (FBS, Cytiva, Marlborough, MA, USA) at 37 °C, 5 % CO2 and 80–85% humidity (NuAir CO2 incubator). The cell growth was evaluated by MTT (3-[4,5-dimethylthiazol-2-yl]-2,5-diphenyltetrazolium bromide) test. Cells were seeded at a density of 5 × 10^3 cells per well in 96-well flat-bottomed plates (TPP). The compounds were dissolved in DMSO (AppliChem) to 10 mM before the experiments, and then the resulting solutions were diluted by the medium to the required concentrations. Solutions of the tested compounds with different concentrations in 100 μL of the medium were added and the cells were grown for 72 h. MTT (10 μL/well, 5 mg/mL) was added for the final 3 h. The formazan purple crystals were dissolved in DMSO (100 μL per well). The absorbance of solutions was measured at 540 nm with a MultiScan reader (ThermoFisher). Results were analyzed by Excel package (Microsoft). The inhibition of proliferation (inhibitory index) was calculated as [1–(ODexperiment/ODcontrol)], where OD was MTT optical density. IC50 (Table 1) was determined as the concentration giving 50% of inhibition in the comparison with it […].

[5] = tested on: keratinocytes HaCaT; assay: Antiproliferative activity, MTT assay; type: cell-based; conditions: Homo sapiens, 72 h, standard deviations within 50%
Method: as §1

[6] = tested on: fibroblasts L929; assay: Antiproliferative activity, MTT assay; type: cell-based, murine; conditions: Mus musculus, 72 h, standard deviations within 50%
Method: as §1

[7] = tested on: macrophages J774; assay: Antiproliferative activity, MTT assay; type: cell-based, murine; conditions: Mus musculus, 72 h, standard deviations within 50%
Method: as §1

[8] = molecular target: T1, recombinant PI3K (p110α/p85α) (Homo sapiens, UniProt P42336); assay: PI3K inhibition assay (HTRF); type: biochemical; conditions: FRET/HTRF detection; approximate; read-out: IC50 PI3Kα
T1 construct: purchased Millipore 14-602
Method: The PI 3-Kinase (Class I) HTRF Assay Kit (Cat# 33-016 from Millipore) was used to determine the activity of recombinant PI3K (p110α/p85α) human (Cat# 14-602 from Millipore). The kit was supplemented with ATP (Cat# A26209 from Sigma-Aldrich, St. Louis, MI, USA), DL-dithiothreitol (Cat# S-[…]-1 from Sigma-Aldrich), and Wortmannin inhibitor (Cat# 12-338 from Millipore, Burlington, MA, USA). The latter was used at 0.1 μM concentration. For measurements, a Victor ×5 plate reader (PerkinElmer, 2030, Waltham, MA, USA) was used in TRF mode with excitation at 340 nm. Fluorescence emission was recorded at 613 and 670 nm in a 384-well plate (Cat# S-CLS3658 from Sigma-Aldrich) at a time interval of 150-350 μs. The enzymatic reaction and the determination of its products were carried out according to the recommendations of the reagent kit manufacturer (Millipore) in two wells for each sample. In calculations, readings in parallel wells were averaged. The calculations were made according to the recommendations of the equipment manufacturer.

T1 sequence (P42336 whole entry): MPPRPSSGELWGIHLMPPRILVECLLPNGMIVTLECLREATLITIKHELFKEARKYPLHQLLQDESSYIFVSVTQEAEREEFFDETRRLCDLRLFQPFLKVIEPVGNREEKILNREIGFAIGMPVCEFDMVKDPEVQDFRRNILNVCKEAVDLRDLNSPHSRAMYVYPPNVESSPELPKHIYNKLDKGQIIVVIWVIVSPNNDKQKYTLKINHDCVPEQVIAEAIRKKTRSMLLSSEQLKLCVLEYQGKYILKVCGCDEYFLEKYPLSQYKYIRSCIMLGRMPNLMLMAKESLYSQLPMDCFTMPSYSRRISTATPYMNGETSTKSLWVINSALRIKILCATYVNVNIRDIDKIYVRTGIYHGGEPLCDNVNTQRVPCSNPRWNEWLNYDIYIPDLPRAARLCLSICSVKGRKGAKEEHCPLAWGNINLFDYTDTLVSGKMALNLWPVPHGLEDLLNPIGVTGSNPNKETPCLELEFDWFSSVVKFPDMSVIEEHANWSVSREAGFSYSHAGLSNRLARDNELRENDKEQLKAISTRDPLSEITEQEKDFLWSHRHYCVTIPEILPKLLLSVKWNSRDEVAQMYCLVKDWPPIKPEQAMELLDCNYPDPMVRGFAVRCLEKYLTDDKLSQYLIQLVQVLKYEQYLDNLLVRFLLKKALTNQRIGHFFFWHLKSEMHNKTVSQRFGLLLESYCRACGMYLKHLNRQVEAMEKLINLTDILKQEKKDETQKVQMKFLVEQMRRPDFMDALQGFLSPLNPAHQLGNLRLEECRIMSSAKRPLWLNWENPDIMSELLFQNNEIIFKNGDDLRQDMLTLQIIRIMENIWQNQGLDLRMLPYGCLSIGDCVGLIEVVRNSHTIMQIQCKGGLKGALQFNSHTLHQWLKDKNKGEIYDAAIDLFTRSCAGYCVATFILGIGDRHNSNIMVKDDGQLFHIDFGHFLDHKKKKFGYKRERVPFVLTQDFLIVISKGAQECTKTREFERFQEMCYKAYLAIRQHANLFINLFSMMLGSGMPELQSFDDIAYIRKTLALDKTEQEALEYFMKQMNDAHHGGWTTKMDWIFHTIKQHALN
T1 sequence (P27986 whole entry partner): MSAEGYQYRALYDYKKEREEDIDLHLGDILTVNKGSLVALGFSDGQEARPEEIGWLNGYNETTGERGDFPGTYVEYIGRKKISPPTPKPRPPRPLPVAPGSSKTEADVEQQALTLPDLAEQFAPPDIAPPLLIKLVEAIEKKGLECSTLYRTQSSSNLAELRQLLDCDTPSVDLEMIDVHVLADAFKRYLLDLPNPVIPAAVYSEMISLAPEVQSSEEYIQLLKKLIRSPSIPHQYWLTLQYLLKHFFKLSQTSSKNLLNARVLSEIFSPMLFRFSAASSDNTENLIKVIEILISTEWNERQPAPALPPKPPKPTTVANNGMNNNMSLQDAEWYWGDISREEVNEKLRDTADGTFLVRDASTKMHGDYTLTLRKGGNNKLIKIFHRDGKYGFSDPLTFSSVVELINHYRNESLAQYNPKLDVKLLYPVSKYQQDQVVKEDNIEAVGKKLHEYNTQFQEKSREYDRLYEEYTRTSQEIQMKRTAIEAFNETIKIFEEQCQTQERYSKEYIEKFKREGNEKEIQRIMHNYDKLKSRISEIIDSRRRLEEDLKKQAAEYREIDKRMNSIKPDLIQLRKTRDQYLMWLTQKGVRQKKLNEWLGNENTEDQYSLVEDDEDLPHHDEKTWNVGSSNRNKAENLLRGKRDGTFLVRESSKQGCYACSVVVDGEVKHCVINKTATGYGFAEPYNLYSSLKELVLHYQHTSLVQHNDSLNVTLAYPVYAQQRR

## O=C(NCCc1cccnc1)Nc1ccc(-c2ccc3c(N4CCOCC4)nc(N4CCOCC4)nc3c2)cc1 [Compound 7c, 1-(4-(2,4-Dimorpholinoquinazolin-7-yl)phenyl)-3-(2-(pyridin-3-yl)ethyl)urea]
[1]
  Concentration above which all cells died: higher than 10 μM
  Concentration below which no changes in the cell cycle were found: below 1 μM
[2]
  Solubility: soluble only in DMSO
[3]
  Concentration inhibiting phosphorylation of Akt, mTOR, S6K (PI3K/Akt/mTOR proteins): 125 to 250 nM and 250 to 500 nM
[4]
  IC50: 200 nM
[5]
  IC50: 6000 nM
[6]
  IC50: 3000 nM
[7]
  IC50: 400 nM
[8]
  IC50: ~500000 nM
